Where two headings read alike, the source gives them in different places.
Legend:
spasm by histamine = experiment: Antispasmodic activity in vitro, spasm by histamine
spasm by acetylcholine = experiment: Antispasmodic activity in vitro, spasm by acetylcholine
[1] = test system: edema induced by formalin; experiment: Anti-inflammatory activity, formalin-induced edema; type: in vivo, rat; conditions: po; for inhibition in vivo at 500 mg/kg: read-out: % inhibition of edema induced by formalin
edema induced by dextran = experiment: Anti-inflammatory activity, dextran-induced edema; type: in vivo, rat; conditions: po; for inhibition in vivo at 500 mg/kg: read-out: % inhibition of edema induced by dextran
granuloma = experiment: Granuloma cotton pellet test; conditions: for inhibition in vivo at 200 mg/kg: Rattus norvegicus, po, read-out: % inhibition of granuloma; for Inhibitory activity in the granuloma cotton pellet test (in words): rat, in vivo
[2] = Analgesic activity, hot plate test; type: in vivo, mouse; conditions: po, read-out: Analgesic activity, increase of reaction time %
[3] = test system: edema induced by carrageenan; experiment: Anti-inflammatory activity, carrageenin-induced oedema; type: in vivo, rat; conditions: for inhibition in vivo at 500 mg/kg: po, read-out: % inhibition of edema induced by carrageenan
From the text: Beginning, therefore, with D-glucose, we have prepared 1,2:5,6-di-O-isopropylidene-α-D-glucofuranose (II): [drawing 2] as well as 1,2-O-isopropylidene-α-D-glucofuranose and 1,2-O-isopropylidene-3,5,6-tri-O-benzyl-α-D-glucofuranose (1; Glen W. L., Myers G. S., Grant G. A., J. Chem. Soc., 2568/1951; (2) Meyer A. S., Reichstein T., Helv. Chim. Acta, 29, 139/1946; (3) Huber G., Rossi A., Helv. Chim. Acta, 51, 1185/1968) and have compared these compounds with (I) for anti-inflammatory activity against carrageenin-induced oedema (500 mg/kg, p.o. in rats).

[4] = Analgesic activity, protection from writhing; type: in vivo, mouse; conditions: po, read-out: Analgesic activity, protection from writhing %
capillary permeability [5] = conditions: 500 mg/kg p.o. mouse
Antipyretic activity = type: in vivo, rat; conditions: for Antipyretic activity (potency in comparison with aspirin = 100): 400 mg/kg p.o. rat; for Antipyretic action (in words): rat, in vivo
in vivo = conditions: mouse, in vivo, po
capillary permeability [6] = experiment: Capillary permeability test
[7] = test system: oedema induced by carrageenin, dextran and formalin; experiment: Anti-inflammatory activity tests (oedema by carrageenin, dextran and formalin); type: in vivo; conditions: rat
[8] = Preliminary pharmacological screening (overall); type: in vivo
mouse = experiment: in vivo; conditions: oral route, even at a dose of 4,000 mg./kg.
[9] = background; cited from earlier work
[10] = Analgesic action (overall); conditions: mouse, in vivo
[11] = test system: spasms induced by histamine and acetylcholine; experiment: Antispasmodic activity tests in vitro (overall)
[12] = test system: edema induced by carrageenan; experiment: Anti-inflammatory activity, carrageenin-induced oedema; type: in vivo; conditions: po; at a dose of 200 mg/kg p.o., rat (footnote e)
[13] = 500 mg/kg p.o. mouse, hot plate test
[14] = at a dose of 400 mg/kg p.o., mouse (footnote d)
[15] = at a dose of 200 mg/kg p.o., rat (footnote e)

| SMILES | Antispasmodic activity in vitro, ED50, inhib. of spasm by histamine (spasm by histamine) | Antispasmodic activity in vitro, ED50, inhib. of spasm by acetylcholine (spasm by acetylcholine) | inhibition in vivo at 200 mg/kg (granuloma) | Antipyretic activity (potency in comparison with aspirin = 100) (Antipyretic activity) | Antipyretic action (in words) (Antipyretic activity) | LD50 (in vivo) | Capillary permeability, decrease % (capillary permeability [6]; 500 mg/kg p.o. mouse) | inhibition in vivo at 500 mg/kg ([1]; 500 mg/kg p.o. rat) | Anti-inflammatory potency compared with aspirin and phenylbutazone (in words) [7] | Inhibition of oedema induced by carrageenin, dextran and formalin, compared with (I) (in words) [7] | inhibition in vivo at 500 mg/kg (edema induced by dextran; 500 mg/kg p.o. rat) | change in vivo at 500 mg/kg [2, 13] | inhibition in vivo at 500 mg/kg ([3]; 500 mg/kg p.o. rat) | inhibition in vivo at 500 mg/kg ([4]; 500 mg/kg p.o. mouse) | Oral toxicity / tolerance (in words) (mouse) | also measured |
| --- | --- | --- | --- | --- | --- | --- | --- | --- | --- | --- | --- | --- | --- | --- | --- | --- |
| CC1(C)OCC(C2OC3OC(C)(C)OC3C2O)O1 (stereo not shown) | > 100 µg/mL | > 100 µg/mL | 0% | 63% | present | 4000 mg/kg |  |  |  |  |  |  |  |  |  | inhibition in vivo at 500 mg/kg ([1]; Rattus norvegicus): 19%; inhibition in vivo at 500 mg/kg (edema induced by dextran; Rattus norvegicus): 0%; change in vivo at 500 mg/kg ([2]; Mus musculus): 0%; inhibition in vivo at 500 mg/kg ([3]; Rattus norvegicus): 33%; Anti-inflammatory activity compared with (I), preliminary tests ([3]; carrageenin-induced oedema, 500 mg/kg, p.o. in rats): fully comparable with that of (I); inhibition in vivo at 500 mg/kg ([4]; Mus musculus): 20%; Capillary permeability, decrease % (capillary permeability [5]): 46% |
| C=CCOC1C(C2COC(C)(C)O2)OC2OC(C)(C)OC21 [IX, 3-O-allyl-1,2:5,6-di-O-isopropylidene-α-D-glucofuranose] | 60 µg/mL | 60 µg/mL | 16% | 44% | retained | > 4000 mg/kg | 43% | 29% | as potent as or more potent than aspirin and phenylbutazone | clearly more active than (I) | 39% | 0% | 68% | 20% | well tolerated | Activity against spasms produced by acetylcholine (in words) (spasm by acetylcholine): moderately active; Inhibitory activity in the granuloma cotton pellet test (in words) (granuloma): some inhibitory activity; Spectrum and potency of action in comparison with (I) (in words) [8]: analogous or even better spectrum and potency of action |
| CCCCCCCCCCCCCCCCOC1C(C2COC(C)(C)O2)OC2OC(C)(C)OC21 (stereo not shown) [VIII] |  |  |  | 0% |  | > 4000 mg/kg | 22% | 0% |  |  | 0% | 0% | 13% | 20% | well tolerated |  |
| CCOC1O[C@H]([C@@H](COCc2ccccc2)OCc2ccccc2)[C@H](OCc2ccccc2)[C@H]1O (stereo partly drawn) [I, ethyl 3,5,6-tri-O-benzyl-D-glucofuranoside, reference compound] | 20 µg/mL | 30 µg/mL | 0% | 9% | little or no activity | > 4000 mg/kg | 48% | 14% |  |  | 0% | 10% | 20% | 0% | well tolerated | Known pharmacological activity (in words) [9]: anti-inflammatory and anti-allergic activity; Analgesic action (in words) [10]: moderate or nil |
| CC(=O)OC1C(C2COC(C)(C)O2)OC2OC(C)(C)OC21 [XII, 3-Acetyl-1,2:5,6-di-O-isopropylidene-α-D-glucofuranose] | > 100 µg/mL | > 100 µg/mL |  | 0% |  | > 4000 mg/kg | 26% | 9% |  |  | 0% | 20% | 21% | 0% | well tolerated |  |
| CCCCCOC1C(C2COC(C)(C)O2)OC2OC(C)(C)OC21 [VII, 3-n-Pentyl-1,2:5,6-di-O-isopropylidene-α-D-glucofuranose] | > 100 µg/mL | > 100 µg/mL | 19% | 0% |  | 4000 mg/kg | 4% | 48% | as potent as or more potent than aspirin and phenylbutazone | clearly more active than (I) | 31% | 0% | 62% | 20% |  | Inhibitory activity in the granuloma cotton pellet test (in words) (granuloma): some inhibitory activity |
| CC(=O)Oc1ccccc1C(=O)O [Aspirin, reference compound] | > 100 µg/mL | > 100 µg/mL | 12% |  |  | 1000 mg/kg |  | 29% |  |  | 47% | 70% | 53% | 100% |  | Capillary permeability, decrease % (capillary permeability [6]; [14]): 73%; Antispasmodic activity (in words) [11]: inactive |
| CC1(C)OCC(C2OC3OC(C)(C)OC3C2OCc2ccccc2)O1 (stereo not shown) [XI] | > 100 µg/mL | > 100 µg/mL |  | 8% |  | > 4000 mg/kg | 29% | 21% |  |  | 0% | 0% | 39% | 20% | well tolerated |  |
| COC1C(C2COC(C)(C)O2)OC2OC(C)(C)OC21 (stereo not shown) [III] | 100 µg/mL | > 100 µg/mL | 0% | 70% | retained | 2000 mg/kg | 37% | 25% | as potent as or more potent than aspirin and phenylbutazone | clearly more active than (I) | 35% | 20% | 51% | 20% |  |  |
| CCCCC1C(=O)N(c2ccccc2)N(c2ccccc2)C1=O [Phenylbutazone, reference compound] | > 100 µg/mL | > 100 µg/mL | 31% | 85% |  |  |  |  |  |  |  | 10% |  | 100% |  | Capillary permeability, decrease % (capillary permeability [6]; [14]): 75%; inhibition in vivo at 200 mg/kg [1, 15]: 13%; inhibition in vivo at 200 mg/kg (edema induced by dextran; [15]): 15%; inhibition in vivo at 200 mg/kg [12]: 52%; Antispasmodic activity (in words) [11]: inactive |

Reference: patent US4251520A, “Glucofuranose derivatives” (priority 1976, dated 1981)
